Assays:
Test in all cases: Post-emergence test experiment (Table 3, 1000 g/ha)
Type in all cases: in vivo
Conditions in all cases: post-emergence spray, after 3 weeks, fresh weight inhibition
Abutilon theophrasti = tested on: Abutilon theophrasti
Outline: (§1)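 Activity graded levels 0-5 by fresh-weight inhibition (level 5 above 85%, level 0 below 5%), assessed 3 weeks after treatment. Plants grown in greenhouse pots were sprayed post-emergence at 2-3 leaves using acetone/tween-80 solutions with methyl oleate synergist (1.5 L/ha).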

Galium spurium = tested on: Galium spurium
Outline: as §1

Digitaria sanguinalis = tested on: Digitaria sanguinalis
Outline: as §1

Setaria viridis = tested on: Setaria viridis
Outline: as §1

Leptochloa chinensis = tested on: Leptochloa chinensis
Outline: as §1

Monochoria vaginalis = tested on: Monochoria vaginalis
Outline: as §1

| Compound | Activity level (growth inhibition rate) Abutilon theophrasti (Abutilon theophrasti) | Activity level (growth inhibition rate) Galium spurium (Galium spurium) | Activity level (growth inhibition rate) Digitaria sanguinalis (Digitaria sanguinalis) | Activity level (growth inhibition rate) Setaria viridis (Setaria viridis) | Activity level (growth inhibition rate) Leptochloa chinensis (Leptochloa chinensis) | Activity level (growth inhibition rate) Monochoria Vaginalis (Monochoria vaginalis) |
| --- | --- | --- | --- | --- | --- | --- |
| CCCc1c(OC(C)C(=O)SCC(F)(F)F)nc(Br)c(Cl)c1N (stereo not drawn) [Compound 18] | 5 (Level 5: the growth inhibition rate is greater than 85%) | 5 (Level 5: the growth inhibition rate is greater than 85%) | 5 (Level 5: the growth inhibition rate is greater than 85%) | 5 (Level 5: the growth inhibition rate is greater than 85%) | 5 (Level 5: the growth inhibition rate is greater than 85%) | 5 (Level 5: the growth inhibition rate is greater than 85%) |
| CCCCC(CC)CSC(=O)C(C)Oc1nc(C)c(C)c(N)c1C (stereo not drawn) [Compound 19] | 5 (Level 5: the growth inhibition rate is greater than 85%) | 5 (Level 5: the growth inhibition rate is greater than 85%) | 5 (Level 5: the growth inhibition rate is greater than 85%) | 5 (Level 5: the growth inhibition rate is greater than 85%) | 5 (Level 5: the growth inhibition rate is greater than 85%) | 5 (Level 5: the growth inhibition rate is greater than 85%) |
| CSC(=O)C(C)Oc1nc(F)c(Cl)c(N)c1C (stereo not drawn) [Compound 20] | 5 (Level 5: the growth inhibition rate is greater than 85%) | 5 (Level 5: the growth inhibition rate is greater than 85%) | 5 (Level 5: the growth inhibition rate is greater than 85%) | 5 (Level 5: the growth inhibition rate is greater than 85%) | 5 (Level 5: the growth inhibition rate is greater than 85%) | 5 (Level 5: the growth inhibition rate is greater than 85%) |
| CSC(=O)C(C)Oc1ncc(Cl)c(N)c1C (stereo not drawn) [Compound 21] | 5 (Level 5: the growth inhibition rate is greater than 85%) | 5 (Level 5: the growth inhibition rate is greater than 85%) | 5 (Level 5: the growth inhibition rate is greater than 85%) | 5 (Level 5: the growth inhibition rate is greater than 85%) | 5 (Level 5: the growth inhibition rate is greater than 85%) | 5 (Level 5: the growth inhibition rate is greater than 85%) |
| CSC(=O)C(C)Oc1nc(F)c(Cl)c(N)c1C1CC1 (stereo not drawn) [Compound 22] | 5 (Level 5: the growth inhibition rate is greater than 85%) | 5 (Level 5: the growth inhibition rate is greater than 85%) | 5 (Level 5: the growth inhibition rate is greater than 85%) | 5 (Level 5: the growth inhibition rate is greater than 85%) | 5 (Level 5: the growth inhibition rate is greater than 85%) | 5 (Level 5: the growth inhibition rate is greater than 85%) |
| CCCSC(=O)C(C)Oc1nc(F)c(Cl)c(N)c1Cl (stereo not drawn) [Compound 67] | 5 (Level 5: the growth inhibition rate is greater than 85%) | 5 (Level 5: the growth inhibition rate is greater than 85%) | 5 (Level 5: the growth inhibition rate is greater than 85%) | 5 (Level 5: the growth inhibition rate is greater than 85%) | 5 (Level 5: the growth inhibition rate is greater than 85%) | 5 (Level 5: the growth inhibition rate is greater than 85%) |
| CC(C)SC(=O)C(C)Oc1nc(F)c(Cl)c(N)c1Cl (stereo not drawn) [Compound 68] | 5 (Level 5: the growth inhibition rate is greater than 85%) | 5 (Level 5: the growth inhibition rate is greater than 85%) | 5 (Level 5: the growth inhibition rate is greater than 85%) | 5 (Level 5: the growth inhibition rate is greater than 85%) | 5 (Level 5: the growth inhibition rate is greater than 85%) | 5 (Level 5: the growth inhibition rate is greater than 85%) |
| CCC(C)SC(=O)C(C)Oc1nc(F)c(Cl)c(N)c1Cl (stereo not drawn) [Compound 69] | 5 (Level 5: the growth inhibition rate is greater than 85%) | 5 (Level 5: the growth inhibition rate is greater than 85%) | 5 (Level 5: the growth inhibition rate is greater than 85%) | 5 (Level 5: the growth inhibition rate is greater than 85%) | 5 (Level 5: the growth inhibition rate is greater than 85%) | 5 (Level 5: the growth inhibition rate is greater than 85%) |
| CCCCSC(=O)C(C)Oc1nc(F)c(Cl)c(N)c1Cl (stereo not drawn) [Compound 70] | 5 (Level 5: the growth inhibition rate is greater than 85%) | 5 (Level 5: the growth inhibition rate is greater than 85%) | 5 (Level 5: the growth inhibition rate is greater than 85%) | 5 (Level 5: the growth inhibition rate is greater than 85%) | 5 (Level 5: the growth inhibition rate is greater than 85%) | 5 (Level 5: the growth inhibition rate is greater than 85%) |
| CCCCCSC(=O)C(C)Oc1nc(F)c(Cl)c(N)c1Cl (stereo not drawn) [Compound 71] | 5 (Level 5: the growth inhibition rate is greater than 85%) | 5 (Level 5: the growth inhibition rate is greater than 85%) | 5 (Level 5: the growth inhibition rate is greater than 85%) | 5 (Level 5: the growth inhibition rate is greater than 85%) | 5 (Level 5: the growth inhibition rate is greater than 85%) | 5 (Level 5: the growth inhibition rate is greater than 85%) |
| CCCCCCSC(=O)C(C)Oc1nc(F)c(Cl)c(N)c1Cl (stereo not drawn) [Compound 72] | 5 (Level 5: the growth inhibition rate is greater than 85%) | 5 (Level 5: the growth inhibition rate is greater than 85%) | 5 (Level 5: the growth inhibition rate is greater than 85%) | 5 (Level 5: the growth inhibition rate is greater than 85%) | 5 (Level 5: the growth inhibition rate is greater than 85%) | 5 (Level 5: the growth inhibition rate is greater than 85%) |
| CCCCCCCCSC(=O)C(C)Oc1nc(F)c(Cl)c(N)c1Cl (stereo not drawn) [Compound 73] | 5 (Level 5: the growth inhibition rate is greater than 85%) | 5 (Level 5: the growth inhibition rate is greater than 85%) | 5 (Level 5: the growth inhibition rate is greater than 85%) | 5 (Level 5: the growth inhibition rate is greater than 85%) | 5 (Level 5: the growth inhibition rate is greater than 85%) | 5 (Level 5: the growth inhibition rate is greater than 85%) |
| CC(Oc1nc(F)c(Cl)c(N)c1Cl)C(=O)SC(F)(F)F (stereo not drawn) [Compound 75] | 5 (Level 5: the growth inhibition rate is greater than 85%) | 5 (Level 5: the growth inhibition rate is greater than 85%) | 5 (Level 5: the growth inhibition rate is greater than 85%) | 5 (Level 5: the growth inhibition rate is greater than 85%) | 5 (Level 5: the growth inhibition rate is greater than 85%) | 5 (Level 5: the growth inhibition rate is greater than 85%) |
| CC(Oc1nc(F)c(Cl)c(N)c1Cl)C(=O)SC(F)(F)C(F)(F)F (stereo not drawn) [Compound 76] | 5 (Level 5: the growth inhibition rate is greater than 85%) | 5 (Level 5: the growth inhibition rate is greater than 85%) | 5 (Level 5: the growth inhibition rate is greater than 85%) | 5 (Level 5: the growth inhibition rate is greater than 85%) | 5 (Level 5: the growth inhibition rate is greater than 85%) | 5 (Level 5: the growth inhibition rate is greater than 85%) |
| CC(Oc1nc(F)c(Cl)c(N)c1Cl)C(=O)SCC(F)(F)F (stereo not drawn) [Compound 78] | 5 (Level 5: the growth inhibition rate is greater than 85%) | 5 (Level 5: the growth inhibition rate is greater than 85%) | 5 (Level 5: the growth inhibition rate is greater than 85%) | 5 (Level 5: the growth inhibition rate is greater than 85%) | 5 (Level 5: the growth inhibition rate is greater than 85%) | 5 (Level 5: the growth inhibition rate is greater than 85%) |

Source: patent publication US12391648B2, “Pyridyloxy thioester derivative and preparation method therefor, herbicidal composition, and application” (Qingdao Kingagroot Chemical Compound Co., Ltd., priority 2018, dated 2025)
